The values that follow come from US10035794B2, “Heterocyclic derivatives and their use in the treatment of neurological disorders” (NOVARTIS AG, priority 2011, dated 2018).

This assay can be described thus: Test 4: Inhibition of Cellular Release of Amyloid Peptide 1-40. In kind it is cell-based, Chinese hamster. The following applies: Cricetulus griseus, CHO, 24 h; read-out: Amyloid-β1-40 release IC50. As to the method:
Chinese hamster ovary cells are transfected with the human gene for amyloid precursor protein. The cells are plated at a density of 8000 cells/well into 96-well microtiter plates and cultivated for 24 hours in DMEM cell culture medium containing 10% FCS. The test compound is added to the cells at various concentrations, and the cells are cultivated for 24 hours in the presence of the test compound.

In general, IC50 refers to the concentration at which inhibition is half-maximal. As to `C[C@]1(c2cccc(NC(=O)c3ccc(C#N)cn3)n2)CO[C@@](C)(C(F)(F)F)C(N)=N1` [Example 9, 5-Cyano-pyridine-2-carboxylic acid [6-((3S,6R)-5-amino-3,6-dimethyl-6-trifluoromethyl-3,6-dihydro-2H-[1,4]oxazin-3-yl)-pyridin-2-yl]-amide], the IC50 came to 1900 nM.

In the case of `C[C@@]1(c2cccc(NC(=O)c3ncc(C#N)cc3N)n2)CO[C@@](C)(C(F)(F)F)C(N)=N1` [Example 19, 3-Amino-5-cyano-pyridine-2-carboxylic acid [6-((3R,6R)-5-amino-3,6-dimethyl-6-trifluoromethyl-3,6-dihydro-2H-[1,4]oxazin-3-yl)-pyridin-2-yl]-amide], the IC50 is 48 nM.

On to `C[C@@]1(c2nc(NC(=O)c3ncc(OCCCF)nc3N)ccc2F)CO[C@@](C)(C(F)(F)F)C(N)=N1` [Example 42, 3-Amino-5-(3-fluoro-propoxy)-pyrazine-2-carboxylic acid [6-((3R,6R)-5-amino-3,6-dimethyl-6-trifluoromethyl-3,6-dihydro-2H-[1,4]oxazin-3-yl)-5-fluoro-pyridin-2-yl]amide], for which the half-inhibitory concentration (IC50) amounted to 72 nM.

On to `Cc1cc(C#N)cnc1C(=O)Nc1ccc(F)c([C@@]2(C(F)F)COCC(N)=N2)n1` [Example 39, 5-Cyano-3-methyl-pyridine-2-carboxylic acid [6-((S)-5-amino-3-difluoromethyl-3,6-dihydro-2H-[1,4]oxazin-3-yl)-5-fluoro-pyridin-2-yl]-amide], for which the half-inhibitory concentration (IC50) stood at 290 nM.

Regarding `Cc1cc(C#N)cnc1C(=O)Nc1ccc(F)c([C@]2(C)CO[C@@](C)(C(F)(F)F)C(N)=N2)n1` [Example 11, 5-Cyano-3-methyl-pyridine-2-carboxylic acid [6-((3R,6R)-5-amino-3,6-dimethyl-6-trifluoromethyl-3,6-dihydro-2H-[1,4]oxazin-3-yl)-5-fluoro-pyridin-2-yl]-amide], the IC50 turned out to be 2 nM.

As to `Cc1cnc(C(=O)Nc2ccc(F)c([C@]3(C)CO[C@@](C)(C(F)(F)F)C(N)=N3)n2)c(C)n1` [Example 41, 3,5-Dimethyl-pyrazine-2-carboxylic acid [6-((3R,6R)-5-amino-3,6-dimethyl-6-trifluoromethyl-3,6-dihydro-2H-[1,4]oxazin-3-yl)-5-fluoro-pyridin-2-yl]amide], the concentration for half-maximal inhibition (IC50) is 161 nM.

`Cc1cc(C#N)cnc1C(=O)Nc1cccc([C@]2(C)CO[C@@](C)(C(F)(F)F)C(N)=N2)n1` [Example 8, 5-Cyano-3-methyl-pyridine-2-carboxylic acid [6-((3R,6R)-5-amino-3,6-dimethyl-6-trifluoro-methyl-3,6-dihydro-2H-[1,4]oxazin-3-yl)-pyridin-2-yl]-amide]: the IC50 was 6 nM.

For `Cc1cc(C#N)cnc1C(=O)Nc1ccc(F)c([C@@]2(C)CO[C@@](C)(C(F)(F)F)C(N)=N2)n1` [Example 12, 5-Cyano-3-methyl-pyridine-2-carboxylic acid [6-((3S,6R)-5-amino-3,6-dimethyl-6-trifluoromethyl-3,6-dihydro-2H-[1,4]oxazin-3-yl)-5-fluoro-pyridin-2-yl]-amide], the IC50 stood at 280 nM.

Turning to `Cc1cc(OC(F)F)cnc1C(=O)Nc1ccc(F)c([C@]2(C)CO[C@@](C)(C(F)(F)F)C(N)=N2)n1` [Example 29, 5-Difluoromethoxy-3-methyl-pyridine-2-carboxylic acid [6-((3R,6R)-5-amino-3,6-dimethyl-6-trifluoromethyl-3,6-dihydro-2H-[1,4]oxazin-3-yl)-5-fluoro-pyridin-2-yl]amide], the 50% inhibitory concentration (IC50) came out at 24 nM.

Take `Cc1cnc(C(=O)Nc2ccc(F)c([C@]3(C)CO[C@@](C)(C(F)(F)F)C(N)=N3)n2)cn1` [Example 33, 5-Methyl-pyrazine-2-carboxylic acid [6-((3R,6R)-5-amino-3,6-dimethyl-6-trifluoromethyl-3,6-dihydro-2H-[1,4]oxazin-3-yl)-5-fluoro-pyridin-2-yl]amide]: the IC50 turned out to be 130 nM.

For `C[C@@]1(c2cc(NC(=O)c3ncc(C#N)cc3Cl)ncc2F)CO[C@@](C)(C(F)(F)F)C(N)=N1` [Example 35, 3-Chloro-5-cyano-pyridine-2-carboxylic acid [4-((3R,6R)-5-amino-3,6-dimethyl-6-trifluoromethyl-3,6-dihydro-2H-[1,4]oxazin-3-yl)-5-fluoro-pyridin-2-yl]-amide], the IC50 is 140 nM.

`COCCn1ccc2nc(C(=O)Nc3ccc(F)c([C@]4(C)CO[C@@](C)(C(F)(F)F)C(N)=N4)n3)c(N)nc21` [Example 43, 3-Amino-5-(2-methoxy-ethyl)-5H-pyrrolo[2,3-b]pyrazine-2-carboxylic acid [6-((3R,6R)-5-amino-3,6-dimethyl-6-trifluoromethyl-3,6-dihydro-2H-[1,4]oxazin-3-yl)-5-fluoro-pyridin-2-yl]amide]: the half-maximal inhibitory concentration (IC50) worked out at 370 nM.

Regarding `C[C@@]1(c2cccc(NC(=O)c3ccc(Br)cn3)n2)COCC(N)=N1` [Example 1, 5-Bromo-pyridine-2-carboxylic acid [6-((R)-5-amino-3-methyl-3,6-dihydro-2H-[1,4]-oxazin-3-yl)-pyridin-2-yl]-amide], the half-maximal inhibitory concentration (IC50) turned out to be 41 nM.

In the case of `Cc1cc(C#N)cnc1C(=O)Nc1cc([C@@]2(C)CO[C@@](C)(C(F)(F)F)C(N)=N2)c(F)cn1` [Example 17, 5-Cyano-3-methyl-pyridine-2-carboxylic acid [4-((3S,6R)-5-amino-3,6-dimethyl-6-trifluoromethyl-3,6-dihydro-2H-[1,4]oxazin-3-yl)-5-fluoro-pyridin-2-yl]-amide], the half-inhibitory concentration (IC50) stood at 4800 nM.

For the molecule `N#Cc1cnc(C(=O)Nc2ccc(F)c([C@]3(C(F)F)COCC(N)=N3)n2)c(Cl)c1` [Example 40, 3-Chloro-5-cyano-pyridine-2-carboxylic acid [6-((R)-5-amino-3-difluoromethyl-3,6-dihydro-2H-[1,4]oxazin-3-yl)-5-fluoro-pyridin-2-yl]-amide], the IC50 was 12 nM.

Turning to `[2H]c1nc(C(=O)Nc2cccc([C@]3(C)CO[C@@](C)(C(F)(F)F)C(N)=N3)n2)c(C([2H])([2H])[2H])c([2H])c1Cl` [Example 21, 5-Chloro-4,6-dideuterio-3-trideuteriomethyl-pyridine-2-carboxylic acid [6-((3R,6R)-5-amino-3,6-dimethyl-6-trifluoromethyl-3,6-dihydro-2H-[1,4]oxazin-3-yl)-pyridin-2-yl]-amide], the half-maximal inhibitory concentration (IC50) is 110 nM.

Take `CC1(c2cccc(NC(=O)c3ccc(Br)cn3)n2)COCC(N)=N1` (racemic) [Example 2, 5-Bromo-pyridine-2-carboxylic acid [6-(5-amino-3-methyl-3,6-dihydro-2H-[1,4]-oxazin-3-yl)-pyridin-2-yl]-amide]: the IC50 worked out at 58 nM.

As to `[2H]c1nc(C(=O)Nc2cc(C3(CF)COCC(N)=N3)ccn2)c(C([2H])([2H])[2H])c([2H])c1Cl` (stereo not shown) [Example 13, 5-{2-[(5-Chloro-4,6-dideutero-3-trideuteromethyl-pyridine-2-carbonyl)-amino]-pyridin-4-yl}-5-fluoromethyl-5,6-dihydro-2H-[1,4]oxazin-3-yl-ammonium acetate], the IC50 worked out at 550 nM.

On to `Cc1cc(C#N)cnc1C(=O)Nc1ccc(F)c([C@]2(C(F)F)COCC(N)=N2)n1` [Example 38, 5-Cyano-3-methyl-pyridine-2-carboxylic acid [6-((R)-5-amino-3-difluoromethyl-3,6-dihydro-2H-[1,4]oxazin-3-yl)-5-fluoro-pyridin-2-yl]-amide], for which the IC50 amounted to 5 nM.

Consider `[2H]c1nc(C(=O)Nc2cccc(C3(CF)COCC(N)=N3)n2)c(C([2H])([2H])[2H])c([2H])c1Cl` (stereo not shown) [Example 6, 5-{6-[(4,6-Dideutero-5-chloro-3-trideuteromethyl-pyridine-2-carbonyl)-amino]-pyridin-2-yl}-5-fluoromethyl-5,6-dihydro-2H-[1,4]oxazin-3-yl-ammonium trifluoro acetate], for which the concentration for half-maximal inhibition (IC50) worked out at 63 nM.

For the molecule `C[C@@]1(c2cc(NC(=O)c3ncc(OC(F)F)cc3Cl)ncc2F)CO[C@@](C)(C(F)(F)F)C(N)=N1` [Example 36, 3-Chloro-5-difluoromethoxy-pyridine-2-carboxylic acid [4-((3R,6R)-5-amino-3,6-dimethyl-6-trifluoromethyl-3,6-dihydro-2H-[1,4]oxazin-3-yl)-5-fluoro-pyridin-2-yl]-amide], the IC50 was found to be 410 nM.

Consider `COc1cnc(C(=O)Nc2ccc(F)c([C@]3(C)CO[C@@](C)(C(F)(F)F)C(N)=N3)n2)c(C)c1` [Example 25, 5-Methoxy-3-methyl-pyridine-2-carboxylic acid [6-((3R,6R)-5-amino-3,6-dimethyl-6-trifluoromethyl-3,6-dihydro-2H-[1,4]oxazin-3-yl)-5-fluoro-pyridin-2-yl]amide], for which the half-inhibitory concentration (IC50) was 76 nM.

As for `C[C@@]1(c2nc(NC(=O)c3nc4ccn(CC(F)F)c4nc3N)ccc2F)CO[C@@](C)(C(F)(F)F)C(N)=N1` [Example 45, 3-Amino-5-(2,2-difluoro-ethyl)-5H-pyrrolo[2,3-b]pyrazine-2-carboxylic acid [6-((3R,6R)-5-amino-3,6-dimethyl-6-trifluoromethyl-3,6-dihydro-2H-[1,4]oxazin-3-yl)-5-fluoro-pyridin-2-yl]amide], the 50% inhibitory concentration (IC50) amounted to 3600 nM.

For the molecule `C[C@@]1(c2cccc(NC(=O)c3ccc(C#N)cn3)n2)CO[C@@](C)(C(F)(F)F)C(N)=N1` [Example 10, 5-Cyano-pyridine-2-carboxylic acid [6-((3R,6R)-5-amino-3,6-dimethyl-6-trifluoromethyl-3,6-dihydro-2H-[1,4]oxazin-3-yl)-pyridin-2-yl]-amide], the IC50 stood at 17 nM.

For `Cc1cc(OCF)cnc1C(=O)Nc1ccc(F)c([C@]2(C)CO[C@@](C)(C(F)(F)F)C(N)=N2)n1` [Example 32, 5-Fluoromethoxy-3-methyl-pyridine-2-carboxylic acid [6-((3R,6R)-5-amino-3,6-dimethyl-6-trifluoromethyl-3,6-dihydro-2H-[1,4]oxazin-3-yl)-5-fluoro-pyridin-2-yl]amide], the IC50 turned out to be 26 nM.
